Test results reported in US20090081320A1, “Method for Weight Reduction” (priority 2005, published 2009).

Test: General observations in test persons using the diet with or without composition
Assay type: in vivo, human
Conditions: diet not adhered to, additional intake
Text: It was observed that the application of the diet according to the invention by itself leads to a weight reduction. In all the test persons, however, side effects such as weakness and/or indisposition as well as gluttonous attacks were reported. […] This is due to the fact that with the intake of the composition that contains one or several active agents which promote fat burning, utilizable energy is made available and the fat burning is accelerated. A test person reported at the start of the reduction cycle on changing over to the diet in accordance with the invention combined with the simultaneous intake of a composition that contains one or several active agents which promote fat burning, that after 2-3 days, the feeling of indisposition or gluttonousness were no longer to be felt and the diet could be well adhered to.
Therefore, the composition contains, in a preferred embodiment in addition to one or several active agents that promote fat burning, one or several active agents that reduce the breakdown of fat to fatty acids in the intestines. Active agents that reduce the breakdown of fat to fatty acids in the intestines are herein active agents that inhibit enzymes which catalyse the breakdown of the fats (tricylglycerines) to fatty acids and glycerines. […] For a body weight deviating from this value, the quantity is to be appropriately adjusted.

C[N+](C)(C)C[C@H](O)CC(=O)[O-] [L-canitine, (3R)-hydroxy-4-(trimethylammonium)-butyrat]
weight loss: no weight loss
